From patent US20260098061A1, “EPHA2-BINDING PENDING PEPTIDE AND COMPOSITION COMPRISING SAME” (PeptiDream Inc., priority 2022, published 2026) come the findings set out here.

Numbered stars: 1 amine (or outer) side, 2 acyl side, 3 side chain; on linkers, the order of the positions; unused ones are H or OH. Bridge positions count the residues as written; N and C are the ends. Square brackets hold non-standard residues; d marks the D form. Side chains are listed from the residue outwards. Peptide text beside a SMILES is read from it. * marks the point of attachment. Piperazinyl(4-CH2COOH) = O=C(O)CN1CCN(*)CC1; Trp(1-Me) = Cn1cc(C[C@H](N)C(=O)O)c2ccccc21; NMe3Pal = CN[C@@H](Cc1cccnc1)C(=O)O; NMeF = CN[C@@H](Cc1ccccc1)C(=O)O; NMeE = CN[C@@H](CCC(=O)O)C(=O)O; Aad = N[C@@H](CCCC(=O)O)C(=O)O; CO = O=C([*:1])[*:2]; βAla = NCCC(=O)O

This experiment addresses T1, Recombinant Human EphA2 Fc Protein (Homo sapiens, UniProt P29317).
T1 construct: purchased Elabscience
As to the kind of experiment: SPR interaction analysis (Biacore T200), kinetics of peptides against EphA2. The class given is binding. Conditions: Recombinant Human EphA2 Fc Protein captured by Human Antibody Capture kit; single-cycle kinetics; 25° C.; HBS-P+ buffer with 1% DMSO. Here is the method:
Example 14 Interaction Analysis by SPR was Performed Using Biacore (Cytiva)
SPR assay was performed using Biacore T200 (Cytiva).
The HBS-P+ buffer (10 mM HEPES (pH7.4), 150 mM NaCl, 0.05% (v/V) Surfactant P20) containing 1% DMSO was used as running buffer. Recombinant Human EphA2 Fc Protein (Fc tag, Elabscience) was captured by Human Antibody Capture kit (Cytiva). Peptide samples in DMSO were diluted with running buffer, and prepared five serial dilutions. Using these serial dilutions, kinetics of peptides against EphA2 was measured at a flow rate of 30 mL/min at 25° C. The method adopted for sample measurement was a single-cycle kinetics method. The analysis was conducted using the evaluation software 3.0 provided with Biacore T200. Kinetics fitting was done on the difference data obtained by subtracting the baseline data from sample measurement data. KD values were calculated based on the association rate constant (ka) and dissociation rate constant (kd).
For orientation: In SPR one partner is held on a chip, and binding of the other changes the refractive index at the surface.

Broadly, the Kd is a measure of binding affinity in units of concentration.

As for `CC(=O)NCCCC[C@@H](NC(=O)CCNC(=O)[C@@H]1CSCC(=O)N[C@H](C)C(=O)N(C)[C@@H](Cc2cccnc2)C(=O)N[C@@H](CC(N)=O)C(=O)N[C@@H](CC(C)C)C(=O)N[C@@H](CCCCNC(=O)N2CCN(CC(=O)O)CC2)C(=O)N(C)[C@@H](Cc2ccccc2)C(=O)N[C@@H](Cc2cn(C)c3ccccc23)C(=O)N[C@@H](CCCCNC(=O)N2CCN(CC(=O)O)CC2)C(=O)N[C@@H](Cc2cn(C)c3ccccc23)C(=O)N[C@@H]([C@@H](C)O)C(=O)N[C@@H](CCC(=O)O)C(=O)N1)C(N)=O` [PDC_EphA2-00008088, da-Me3Py-N-L-KCOpipzaa-MeF-W1Me-KCOpipzaa-W1Me-T-E-C-bA-dkAc-NH2] ({CH2CO}-[dA][NMe3Pal]NLK([CO-Piperazinyl(4-CH2COOH)])[NMeF][Trp(1-Me)]K([CO-Piperazinyl(4-CH2COOH)])[Trp(1-Me)]TEC[βAla][dK](Ac)-NH2; thioether N-12), the Kd is less than 1 nM.

Regarding `CC(=O)NCCCC[C@H](NC(=O)[C@@H]1CSCC(=O)N[C@H](C)C(=O)N(C)[C@@H](Cc2cccnc2)C(=O)N[C@@H](CC(N)=O)C(=O)N[C@@H](CC(C)C)C(=O)N[C@@H](CCCCNC(=O)N2CCN(CC(=O)O)CC2)C(=O)N(C)[C@@H](Cc2ccccc2)C(=O)N[C@@H](Cc2cn(C)c3ccccc23)C(=O)N[C@@H](CCCCNC(=O)N2CCN(CC(=O)O)CC2)C(=O)N[C@@H](Cc2cn(C)c3ccccc23)C(=O)N[C@@H]([C@@H](C)O)C(=O)N[C@@H](CCC(=O)O)C(=O)N1)C(N)=O` [PDC_EphA2-00008089, da-Me3Py-N-L-KCOpipzaa-MeF-W1Me-KCOpipzaa-W1Me-T-E-C-KAc-NH2] ({CH2CO}-[dA][NMe3Pal]NLK([CO-Piperazinyl(4-CH2COOH)])[NMeF][Trp(1-Me)]K([CO-Piperazinyl(4-CH2COOH)])[Trp(1-Me)]TECK(Ac)-NH2; thioether N-12), the Kd is less than 1 nM.

With `CC(=O)NCCCC[C@@H](NC(=O)[C@@H]1CSCC(=O)N[C@H](C)C(=O)N(C)[C@@H](Cc2cccnc2)C(=O)N[C@@H](CC(N)=O)C(=O)N[C@@H](CC(C)C)C(=O)N[C@@H](CCCCNC(=O)N2CCN(CC(=O)O)CC2)C(=O)N(C)[C@@H](Cc2ccccc2)C(=O)N[C@@H](Cc2cn(C)c3ccccc23)C(=O)N[C@@H](CCCCNC(=O)N2CCN(CC(=O)O)CC2)C(=O)N[C@@H](Cc2cn(C)c3ccccc23)C(=O)N[C@@H]([C@@H](C)O)C(=O)N[C@@H](CCC(=O)O)C(=O)N1)C(N)=O` [PDC_EphA2-00008090, da-Me3Py-N-L-KCOpipzaa-MeF-W1Me-KCOpipzaa-W1Me-T-E-C-dkAc-NH2] ({CH2CO}-[dA][NMe3Pal]NLK([CO-Piperazinyl(4-CH2COOH)])[NMeF][Trp(1-Me)]K([CO-Piperazinyl(4-CH2COOH)])[Trp(1-Me)]TEC[dK](Ac)-NH2; thioether N-12), the Kd was less than 1 nM.

Take `CC(=O)NCCCC[C@@H](NC(=O)CCNC(=O)[C@@H]1CSCC(=O)N[C@H](C)C(=O)N(C)[C@@H](Cc2cccnc2)C(=O)N[C@@H](CC(N)=O)C(=O)N[C@@H](CC(C)C)C(=O)N[C@@H](CCCC(=O)O)C(=O)N(C)[C@@H](Cc2ccccc2)C(=O)N[C@@H](Cc2cn(C)c3ccccc23)C(=O)N[C@@H](CCCCNC(=O)N2CCN(CC(=O)O)CC2)C(=O)N[C@@H](Cc2cn(C)c3ccccc23)C(=O)N[C@@H]([C@@H](C)O)C(=O)N[C@@H](CCCC(N)=O)C(=O)N1)C(N)=O` [PDC_EphA2-00008091, da-Me3Py-N-L-Hgl-MeF-W1Me-KCOpipzaa-W1Me-T-Hgn-C-bA-dkAc-NH2] ({CH2CO}-[dA][NMe3Pal]NL[Aad][NMeF][Trp(1-Me)]K([CO-Piperazinyl(4-CH2COOH)])[Trp(1-Me)]T[Aad](NH2)C[βAla][dK](Ac)-NH2; thioether N-12): the Kd is less than 1 nM.

For `CC(=O)NCCCC[C@@H](NC(=O)CCNC(=O)[C@@H]1CSCC(=O)N[C@H](C)C(=O)N(C)[C@@H](Cc2cccnc2)C(=O)N[C@@H](CC(N)=O)C(=O)N[C@@H](CC(C)C)C(=O)N[C@@H](CCCCNC(=O)N2CCN(CC(=O)O)CC2)C(=O)N(C)[C@@H](Cc2ccccc2)C(=O)N[C@@H](Cc2cn(C)c3ccccc23)C(=O)N[C@@H](CCCCNC(=O)N2CCN(CC(=O)O)CC2)C(=O)N[C@@H](Cc2cn(C)c3ccccc23)C(=O)N[C@@H]([C@@H](C)O)C(=O)N[C@@H](CCCC(N)=O)C(=O)N1)C(N)=O` [PDC_EphA2-00008092, da-Me3Py-N-L-KCOpipzaa-MeF-W1Me-KCOpipzaa-W1Me-T-Hgn-C-bA-dkAc-NH2] ({CH2CO}-[dA][NMe3Pal]NLK([CO-Piperazinyl(4-CH2COOH)])[NMeF][Trp(1-Me)]K([CO-Piperazinyl(4-CH2COOH)])[Trp(1-Me)]T[Aad](NH2)C[βAla][dK](Ac)-NH2; thioether N-12), the Kd is less than 1 nM.

Consider `CC(=O)NCCCC[C@@H](NC(=O)CCNC(=O)[C@@H]1CSCC(=O)N[C@H](C)C(=O)N(C)[C@@H](Cc2cccnc2)C(=O)N[C@@H](CC(N)=O)C(=O)N[C@@H](CC(C)C)C(=O)N[C@@H](CCCC(N)=O)C(=O)N(C)[C@@H](Cc2ccccc2)C(=O)N[C@@H](Cc2cn(C)c3ccccc23)C(=O)N[C@@H](CCCCNC(=O)N2CCN(CC(=O)O)CC2)C(=O)N[C@@H](Cc2cn(C)c3ccccc23)C(=O)N[C@@H]([C@@H](C)O)C(=O)N[C@@H](CCCC(N)=O)C(=O)N1)C(N)=O` [PDC_EphA2-00008093, da-Me3Py-N-L-Hgn-MeF-W1Me-KCOpipzaa-W1Me-T-Hgn-C-bA-dkAc-NH2] ({CH2CO}-[dA][NMe3Pal]NL[Aad](NH2)[NMeF][Trp(1-Me)]K([CO-Piperazinyl(4-CH2COOH)])[Trp(1-Me)]T[Aad](NH2)C[βAla][dK](Ac)-NH2; thioether N-12), for which the Kd was less than 1 nM.

In the case of `CC(=O)NCCCC[C@@H](NC(=O)CCNC(=O)[C@@H]1CSCC(=O)N[C@H](C)C(=O)N(C)[C@@H](Cc2cccnc2)C(=O)N[C@@H](CC(N)=O)C(=O)N[C@@H](CC(C)C)C(=O)N[C@@H](CCCC(=O)O)C(=O)N(C)[C@@H](CCC(=O)O)C(=O)N[C@@H](Cc2cn(C)c3ccccc23)C(=O)N[C@@H](CCCCNC(=O)N2CCN(CC(=O)O)CC2)C(=O)N[C@@H](Cc2cn(C)c3ccccc23)C(=O)N[C@@H]([C@@H](C)O)C(=O)N[C@@H](CCCC(N)=O)C(=O)N1)C(N)=O` [PDC_EphA2-00008094, da-Me3Py-N-L-Hgl-MeE-W1Me-KCOpipzaa-W1Me-T-Hgn-C-bA-dkAc-NH2] ({CH2CO}-[dA][NMe3Pal]NL[Aad][NMeE][Trp(1-Me)]K([CO-Piperazinyl(4-CH2COOH)])[Trp(1-Me)]T[Aad](NH2)C[βAla][dK](Ac)-NH2; thioether N-12), the Kd was less than 1 nM.

In the case of `CC(=O)NCCCC[C@@H](NC(=O)CCNC(=O)[C@@H]1CSCC(=O)N[C@H](C)C(=O)N(C)[C@@H](Cc2cccnc2)C(=O)N[C@@H](CC(N)=O)C(=O)N[C@@H](CC(C)C)C(=O)N[C@@H](CCCCNC(=O)N2CCN(CC(=O)O)CC2)C(=O)N(C)[C@@H](CCC(=O)O)C(=O)N[C@@H](Cc2cn(C)c3ccccc23)C(=O)N[C@@H](CCCCNC(=O)N2CCN(CC(=O)O)CC2)C(=O)N[C@@H](Cc2cn(C)c3ccccc23)C(=O)N[C@@H]([C@@H](C)O)C(=O)N[C@@H](CCCC(N)=O)C(=O)N1)C(N)=O` [PDC_EphA2-00008095, da-Me3Py-N-L-KCOpipzaa-MeE-W1Me-KCOpipzaa-W1Me-T-Hgn-C-bA-dkAc-NH2] ({CH2CO}-[dA][NMe3Pal]NLK([CO-Piperazinyl(4-CH2COOH)])[NMeE][Trp(1-Me)]K([CO-Piperazinyl(4-CH2COOH)])[Trp(1-Me)]T[Aad](NH2)C[βAla][dK](Ac)-NH2; thioether N-12), the Kd is less than 1 nM.

For `CC(=O)NCCCC[C@@H](NC(=O)CCNC(=O)[C@@H]1CSCC(=O)N[C@@H](C)C(=O)N(C)[C@@H](Cc2cccnc2)C(=O)N[C@@H](CC(N)=O)C(=O)N[C@@H](CC(C)C)C(=O)N[C@@H](CCCC(=O)O)C(=O)N(C)[C@@H](Cc2ccccc2)C(=O)N[C@@H](Cc2cn(C)c3ccccc23)C(=O)N[C@@H](CCCCNC(=O)N2CCN(CC(=O)O)CC2)C(=O)N[C@@H](Cc2cn(C)c3ccccc23)C(=O)N[C@@H]([C@@H](C)O)C(=O)N[C@@H](CCC(=O)O)C(=O)N1)C(N)=O` [PDC_EphA2-00008097, A-Me3Py-N-L-Hgl-MeF-W1Me-KCOpipzaa-W1Me-T-E-C-bA-dkAc-NH2] ({CH2CO}-A[NMe3Pal]NL[Aad][NMeF][Trp(1-Me)]K([CO-Piperazinyl(4-CH2COOH)])[Trp(1-Me)]TEC[βAla][dK](Ac)-NH2; thioether N-12), the Kd lay in the range of 1 to 10 nM.

On to `CC(C)C[C@@H]1NC(=O)[C@H](CC(N)=O)NC(=O)[C@H](Cc2cccnc2)N(C)C(=O)[C@@H](C)NC(=O)CSC[C@@H](C(N)=O)NC(=O)[C@H](CCCC(N)=O)NC(=O)[C@H]([C@@H](C)O)NC(=O)[C@H](Cc2cn(C)c3ccccc23)NC(=O)[C@H](CCCCNC(=O)N2CCN(CC(=O)O)CC2)NC(=O)[C@H](Cc2cn(C)c3ccccc23)NC(=O)[C@H](Cc2ccccc2)N(C)C(=O)[C@H](CCCC(N)=O)NC1=O` [PDC_EphA2-00009998, da-Me3Py-N-L-Hgn-MeF-W1Me-KCOpipzaa-W1Me-T-Hgn-C-NH2] ({CH2CO}-[dA][NMe3Pal]NL[Aad](NH2)[NMeF][Trp(1-Me)]K([CO-Piperazinyl(4-CH2COOH)])[Trp(1-Me)]T[Aad](NH2)C-NH2; thioether N-12), for which the Kd is less than 1 nM.
